Where a name gives a salt, the structure may show the parent alone.
System: rat heart
Conditions: isolated rat heart; cited from earlier work

Row | Compound | suppression of artificially produced ventricular fibrillation
1 | N=C(N)NC(=O)c1nc(Cl)c(N)nc1N [amiloride] | completely suppressed
2 | CCN(c1nc(N)c(C(=O)NC(=N)N)nc1Cl)C(C)C [ethylisopropylamiloride] | even more potent than amiloride

System: not given
Conditions: not given

Row | Compound | melting point [°C]
3 | NC(N)=NC(=O)/C=C/c1cccc(F)c1 (as salt: hydrochloride) [Example 1, E-3-(3-Fluorophenyl)acrylic acid guanidide hydrochloride] | 148
4 | NC(N)=NC(=O)/C=C/c1cc(F)ccc1F (as salt: hydrochloride) [Example 2, E-3-(2,5-Difluorophenyl)acrylic acid guanidide hydrochloride] | 230
5 | NC(N)=NC(=O)/C=C/c1cc(F)cc(F)c1 (as salt: hydrochloride) [Example 3, E-3-(3,5-Difluorophenyl) acrylic acid guanidide hydrochloride] | 235
6 | NC(N)=NC(=O)/C=C/c1ccccc1F (as salt: hydrochloride) [Example 4, E-3-(2-Fluorophenyl)acrylic acid guanidide hydrochloride] | 243
7 | C/C(=C\c1cc(F)cc(F)c1)C(=O)N=C(N)N (as salt: hydrochloride) [Example 5, E-3-(3,5-Difluorophenyl)-2-methylacrylic acid guanidide hydrochloride] | 178
8 | C/C(=C\c1c(F)c(F)cc(F)c1F)C(=O)N=C(N)N (as salt: hydrochloride) [Example 9, E-3-(2,3,5,6-Tetrafluorophenyl)-2-methylacrylic acid guanidide hydrochloride] | 138

Reference: patent publication US6504057B2, “Fluorophenyl-substituted alkenylcarboxylic acid guanidides, process for their preparation, their use as a medicament or diagnostic, and medicament containing them” (Hoechst Aktiengesellschaft, priority 1995, dated 2003)
